Measured values: US20150344426A1, “COMPOUNDS AND THERAPEUTIC USES THEREOF” (ALZHEIMER'S INSTITUTE OF AMERICA, INC., priority 2012, published 2015)
Several values for one entry are separate records, joined by “and”; a condition that tells them apart may be missing. Equal values may be shown once. Read-outs that look alike come from different tables or passages of the source.

Experiments:
[1] = Experiment 1: hepatic portal vein samples of rats after oral Example Compound 35; assay type: in vivo, female Sprague-Dawley rats; conditions: 20 mg/kg, portal vein; for [Par. Cmp. A]: listed as Par. Cmp. A
Excerpt: It is believed that Example Compound 35 metabolizes in vivo into Parent Compound A (i.e., it is believed that Example Compound 35 is a prodrug of Parent Compound A). The objective of this study was to determine the concentration of Example Compound 35 and Parent Compound A in hepatic portal vein samples of female Sprague-Dawley rats following oral administration of only Example Compound 35, and to quantify the extent of transport into hepatic portal circulation, if any, of Example Compound 35. A second objective was to determine the relative bioavailability of Parent Compound A in the portal vein following oral administration of Example Compound 35.
Experiment 1. Three female Sprague Dawley rats (200-215 g, Harlan Laboratories, Indianapolis, Ind.) with cannulae implanted surgically in the portal vein for blood sampling were used in this study. Example Compound 35, formulated in 50 mM Glycine pH 3.0 with 0.5% HPMC and 0.05% Tween-80, was administered by oral gavage (PO) at a dose of 20 mg/kg in a volume of 2 mL/kg. This dose is the molar equivalent of a 13.5 mg/kg dose of Parent Compound A. Portal blood samples were collected through the portal vein cannula from each animal at 0.25, 0.5, 1, 2, 4, and 8 hours following administration of compound. Samples were split into two fractions and one was supplemented with citrate buffer (final concentration 100 mM, pH 3.0) to stabilize Example Compound 35 and stop conversion of Example Compound 35 to Parent Compound A ex vivo during analysis. Samples were then processed to generate plasma and analyzed for Example Compound 35 by LC-MS/MS. Plasma derived from the second aliquot of blood was analyzed for Parent Compound A.
Pharmacokinetic parameters estimated for Parent Compound A included the maximum observed drug concentration (Cmax), time of maximum observed drug concentration (Tmax), apparent terminal half-life (t1/2), area under the concentration-time curve from time zero to 8 hours postdose (AUC(0-8)), and area under the concentration-time curve extrapolated to infinity (AUC(0-inf)). The bioavailability (% F) of Parent Compound A in portal vein samples relative to IV administration was also estimated.
Plasma samples were analyzed for Example Compound 35 or Parent Compound A concentration using a LC-MS/MS method. All sample runs met standard acceptance criteria for discovery purposes, and were based on a standard curve containing at least 7 points. At least half of quality control samples at each of the three concentrations tested, and two thirds of the entire quality control sample pool, were within 15% of their theoretical value. The r^2 value for each standard curve was ≧0.99. The quantitation range for the Example Compound 35 and Parent Compound A assays was 1 to 100 ng/mL and 5 to 2,500 ng/mL, respectively, using a 0.05 mL sample volume.
The data were entered into the PK software package WinNonlin® version 5.1.1. A complete data check was conducted to verify the accuracy of data entry.
Pharmacokinetic parameters were estimated on median plasma concentrations using extravascular input (PO). Nominal collection times after administration of compound were used for PK analyses. The use of a non-compartmental model provided an adequate fit of the data. Pharmacokinetic parameters estimated for Parent Compound A included the maximum observed drug concentration (Cmax), time of maximum observed drug concentration (Tmax), apparent terminal half-life (t1/2), apparent volume of distribution (Vz obs), apparent clearance (C1 obs), area under the concentration-time curve from time zero to 8 hours postdose of Example Compound 35 […], and area under the concentration-time curve extrapolated to infinity (AUC(0-inf)). Example Compound 35 was detected in only one 0.25 hour hepatic portal vein sample at 1.29 ng/mL. Any Example Compound 35 present in all of the other samples was below the quantitation limit of 1 ng/mL and pharmacokinetic parameters were not determined for those samples. […]

[2] = test system: HT1080 human fibrosarcoma cancer cells; experiment: Anti-tumor activity in HT1080 human fibrosarcoma xenograft with twice daily dosing; assay type: in vivo; conditions: for tumor regression: by Day 8
Description: One million HT1080 cells were implanted subcutaneously in the right flank of female nude mice (Crl:NU-Fox1^nu). When the median tumor volume (MTV) was approximately 209 mm^3, mice were randomized into four cohorts of ten animals. […] All cohorts were dosed twice daily for 7 days. The mice were observed daily for mortality and signs of toxicity. Tumor volumes and body weights were determined from Days 1 to 22. The results are depicted in FIG. 4.

`O=C(NCc1cccnc1)Nc1ccc(OCCc2ccccc2-c2ccccc2)cc1` [Parent Compound A, 1-{4-[2-(Biphenyl-2-yl)ethoxy]phenyl}-3-(pyridin-3-ylmethyl)urea] showed a concentration at 0.25 h ([1]; female, Sprague-Dawley, rat, plasma (hepatic portal vein), po, 0.25 hr after oral Example Compound 35 20 mg/kg, read-out: Median [Par. Cmp. A]) of 961 ng/mL, a concentration at 0.5 h ([1]; female, Sprague-Dawley, rat, plasma (hepatic portal vein), po, 0.5 hr after oral Example Compound 35 20 mg/kg, read-out: Median [Par. Cmp. A]) of 2820 ng/mL and a concentration at 1 h ([1]; female, Sprague-Dawley, rat, plasma (hepatic portal vein), po, 1 hr after oral Example Compound 35 20 mg/kg, read-out: Median [Par. Cmp. A]) of 2460 ng/mL. For the same compound, the concentration at 2 h ([1]; female, Sprague-Dawley, rat, plasma (hepatic portal vein), po, 2 hr after oral Example Compound 35 20 mg/kg, individual rats, read-out: [Par. Cmp. A]) was 1800 ng/mL, the concentration at 2 h ([1]; female, Sprague-Dawley, rat, plasma (hepatic portal vein), po, 2 hr after oral Example Compound 35 20 mg/kg, read-out: Median [Par. Cmp. A]) was 1930 ng/mL and the concentration at 4 h ([1]; female, Sprague-Dawley, rat, plasma (hepatic portal vein), po, 4 hr after oral Example Compound 35 20 mg/kg, read-out: Median [Par. Cmp. A]) was 1000 ng/mL. For the same compound, the concentration at 8 h ([1]; female, Sprague-Dawley, rat, plasma (hepatic portal vein), po, 8 hr after oral Example Compound 35 20 mg/kg, read-out: Median [Par. Cmp. A]) was 41 ng/mL, the “[Par. Cmp. A]” value ([1]; 0.25 hr after oral Example Compound 35 20 mg/kg, individual rats) was 417.4 ng/mL and 2,306.7 ng/mL and 961.4 ng/mL and the “[Par. Cmp. A]” value ([1]; 0.5 hr after oral Example Compound 35 20 mg/kg, individual rats) was 2,819.4 ng/mL and 2,818.9 ng/mL and 577.7 ng/mL. The “[Par. Cmp. A]” value ([1]; 1 hr after oral Example Compound 35 20 mg/kg, individual rats) was 1,064.4 ng/mL and 2,455.1 ng/mL and 3,237.2 ng/mL, the “[Par. Cmp. A]” value ([1]; 2 hr after oral Example Compound 35 20 mg/kg, individual rats) was 2,398.5 ng/mL and 1,930.2 ng/mL and the “[Par. Cmp. A]” value ([1]; 4 hr after oral Example Compound 35 20 mg/kg, individual rats) was 1,004.3 ng/mL and 2,254.2 ng/mL and 177.4 ng/mL. For the same compound, the “[Par. Cmp. A]” value ([1]; 8 hr after oral Example Compound 35 20 mg/kg, individual rats) was 41.0 ng/mL and 378.5 ng/mL and 15.9 ng/mL, the “tumor growth inhibition relative to vehicle” value ([2]; 3 mg/kg orally twice daily for seven days, Day 21) was 60% and the MTV increase ([2]; 3 mg/kg orally twice daily for seven days, end of dosing, Day 9) was 221%. For the same compound, the MTV increase ([2]; 3 mg/kg orally twice daily for seven days, end of the study, Day 21) was 622%, the “tumor growth inhibition relative to vehicle” value ([2]; 4 mg/kg orally twice daily for seven days, Day 21) was 81% and the tumor regression ([2]; 4 mg/kg orally twice daily for seven days) was 13%. For the same compound, the “MTV as % of the initial value” ([2]; 4 mg/kg orally twice daily for seven days, end of dosing, Day 9) was 87%, the MTV increase ([2]; 4 mg/kg orally twice daily for seven days, end of the study, Day 21) was 296% and the “tumor growth inhibition relative to vehicle” value ([2]; 5 mg/kg orally twice daily for seven days, Day 21) was 85%. For the same compound, the tumor regression ([2]; 5 mg/kg orally twice daily for seven days) was 22%, the “MTV as % of the initial value” ([2]; 5 mg/kg orally twice daily for seven days, end of dosing, Day 9) was 78% and the MTV increase ([2]; 5 mg/kg orally twice daily for seven days, end of the study, Day 21) was 235%. The “tumor growth inhibition relative to vehicle” value ([2]; 7 mg/kg orally twice daily for seven days, Day 21) was 89%, the tumor regression ([2]; 7 mg/kg orally twice daily for seven days) was 78% and the “MTV as % of the initial value” ([2]; 7 mg/kg orally twice daily for seven days, end of dosing, Day 9) was 22%. For the same compound, the MTV increase ([2]; 7 mg/kg orally twice daily for seven days, end of the study, Day 21) was 175%, the “tumor growth inhibition relative to vehicle” value ([2]; 9 mg/kg orally twice daily for seven days, Day 21) was 95% and the tumor regression ([2]; 9 mg/kg orally twice daily for seven days) was 61%. The “MTV as % of the initial value” ([2]; 9 mg/kg orally twice daily for seven days, end of dosing, Day 9) was 39%, the MTV increase ([2]; 9 mg/kg orally twice daily for seven days, end of the study, Day 21) was 85% and the “animals with tumor volumes exceeding 1,500 mm^3 euthanized” value ([2]; Parent Compound A study, 3 mg/kg, cohort of ten) was “three”. For the same compound, the deaths ([2]; Parent Compound A study, 4 mg/kg, cohort of ten, two found dead, one euthanized for tumor volume) was “three”, the “animals with no detectable tumor by the end of the study” value (“animals with no detectable tumor” for short) ([2]; Parent Compound A study, 5 mg/kg, cohort of ten) was “One” and the “animals with no detectable tumor” value ([2]; Parent Compound A study, 7 mg/kg, cohort of ten) was “One”. The “animals with no detectable tumor” value ([2]; Parent Compound A study, 9 mg/kg, cohort of ten) was “One”, the “anti-tumor activity in the HT1080 xenograft model (summary statement)” value ([2]; administered orally, twice daily, all doses tested) was “significant anti-tumor activity” and the “maximal reduction in median body weight” value ([2]; over the course of the study, all doses tested, orally twice daily) was < 10 % of the initial weight. The Tolerability ([2]; xenograft mice, all doses tested, orally twice daily) was “well tolerated”.
